Source: US20170190705A1, “Compositions and Methods for Inhibiting BMP” (THE BRIGHAM AND WOMAN'S HOSPITAL, INC., priority 2014, published 2017)

Columns and labels:
Assay type in all cases: biochemical
LYNB = LYNB (Homo sapiens, UniProt P07948); assay: Kinome profiling LYNB; details: read-out: Inhibitory activity LYNB; for inhibition at 0.1 µM: 100 nM
Protocol: (§1) . The kinome-wide selectivity was determined following the methods previously reported by Mohedas et al., ACS Chem Biol 2013, 8, 1291-1302 and Sanvitale et al., PLoS One 2013, 8, e62721.

SRMS = SRMS (Homo sapiens, UniProt Q9H3Y6); assay: Kinome profiling SRMS; details: read-out: Inhibitory activity SRMS; for inhibition at 0.1 µM: 100 nM
SRMS, sequence (Q9H3Y6 whole entry): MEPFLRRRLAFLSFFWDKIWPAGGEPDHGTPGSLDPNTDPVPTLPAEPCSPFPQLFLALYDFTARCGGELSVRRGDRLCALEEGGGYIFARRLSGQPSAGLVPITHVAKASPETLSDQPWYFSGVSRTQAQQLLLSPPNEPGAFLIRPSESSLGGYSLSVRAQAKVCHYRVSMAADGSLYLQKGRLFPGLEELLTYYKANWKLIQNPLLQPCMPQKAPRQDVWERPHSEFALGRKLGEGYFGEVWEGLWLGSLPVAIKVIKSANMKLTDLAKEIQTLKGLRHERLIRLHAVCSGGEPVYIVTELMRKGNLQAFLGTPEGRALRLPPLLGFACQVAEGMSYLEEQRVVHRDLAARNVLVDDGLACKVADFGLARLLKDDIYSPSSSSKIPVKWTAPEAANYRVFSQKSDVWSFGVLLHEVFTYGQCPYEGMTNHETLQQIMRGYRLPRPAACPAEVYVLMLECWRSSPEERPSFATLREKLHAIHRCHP
Protocol: as §1

TNK1 = target: T1, TNK1 (Homo sapiens, UniProt Q13470); assay: Kinome profiling TNK1; details: read-out: Inhibitory activity TNK1; for inhibition at 0.1 µM: 100 nM
T1 sequence (Q13470 1-666): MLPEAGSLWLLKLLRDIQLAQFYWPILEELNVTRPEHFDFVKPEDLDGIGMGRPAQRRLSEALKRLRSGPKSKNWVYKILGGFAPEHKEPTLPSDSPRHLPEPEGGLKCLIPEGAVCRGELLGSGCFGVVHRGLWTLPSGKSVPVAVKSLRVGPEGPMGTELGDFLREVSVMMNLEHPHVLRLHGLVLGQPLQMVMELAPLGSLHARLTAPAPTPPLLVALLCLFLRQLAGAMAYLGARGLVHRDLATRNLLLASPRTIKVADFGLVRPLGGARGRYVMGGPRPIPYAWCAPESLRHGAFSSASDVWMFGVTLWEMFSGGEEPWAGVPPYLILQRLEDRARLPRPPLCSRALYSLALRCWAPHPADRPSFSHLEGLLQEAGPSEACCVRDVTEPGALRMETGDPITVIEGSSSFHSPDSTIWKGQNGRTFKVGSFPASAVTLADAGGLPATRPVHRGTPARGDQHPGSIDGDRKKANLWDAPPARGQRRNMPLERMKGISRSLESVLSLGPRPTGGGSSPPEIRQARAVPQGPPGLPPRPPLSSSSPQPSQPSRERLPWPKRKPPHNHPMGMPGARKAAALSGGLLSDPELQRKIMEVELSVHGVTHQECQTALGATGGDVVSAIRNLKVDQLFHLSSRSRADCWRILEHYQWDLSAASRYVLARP
Protocol: as §1

RSK2 = RSK2 (Homo sapiens, UniProt P51812); assay: Kinome profiling RSK2; details: read-out: Inhibitory activity RSK2; for inhibition at 0.1 µM: 100 nM
RSK2, sequence (P51812 whole entry): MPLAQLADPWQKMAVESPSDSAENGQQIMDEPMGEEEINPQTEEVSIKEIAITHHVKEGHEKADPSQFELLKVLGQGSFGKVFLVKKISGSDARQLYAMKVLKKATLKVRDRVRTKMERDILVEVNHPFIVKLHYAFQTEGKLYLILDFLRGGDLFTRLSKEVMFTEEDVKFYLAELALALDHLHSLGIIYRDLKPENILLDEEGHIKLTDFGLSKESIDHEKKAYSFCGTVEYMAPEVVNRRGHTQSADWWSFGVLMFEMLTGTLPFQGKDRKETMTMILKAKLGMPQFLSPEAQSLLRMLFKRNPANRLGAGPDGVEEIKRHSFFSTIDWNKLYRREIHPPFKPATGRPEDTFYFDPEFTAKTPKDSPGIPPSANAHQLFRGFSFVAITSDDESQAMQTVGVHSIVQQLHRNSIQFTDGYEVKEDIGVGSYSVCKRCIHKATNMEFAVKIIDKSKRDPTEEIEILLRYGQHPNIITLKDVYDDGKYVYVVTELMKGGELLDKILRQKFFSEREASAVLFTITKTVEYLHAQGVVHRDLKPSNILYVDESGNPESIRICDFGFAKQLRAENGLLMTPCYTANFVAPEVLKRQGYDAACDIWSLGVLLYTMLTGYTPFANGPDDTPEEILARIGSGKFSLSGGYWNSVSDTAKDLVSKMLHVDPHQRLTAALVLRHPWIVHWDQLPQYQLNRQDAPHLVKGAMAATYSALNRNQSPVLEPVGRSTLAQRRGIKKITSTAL
Protocol: as §1

PRKG1 = target: T2, PRKG1 (Homo sapiens, UniProt Q13976); assay: Kinome profiling PRKG1; details: read-out: Inhibitory activity PRKG1; for inhibition at 0.1 µM: 100 nM
T2 sequence (Q13976 1-671): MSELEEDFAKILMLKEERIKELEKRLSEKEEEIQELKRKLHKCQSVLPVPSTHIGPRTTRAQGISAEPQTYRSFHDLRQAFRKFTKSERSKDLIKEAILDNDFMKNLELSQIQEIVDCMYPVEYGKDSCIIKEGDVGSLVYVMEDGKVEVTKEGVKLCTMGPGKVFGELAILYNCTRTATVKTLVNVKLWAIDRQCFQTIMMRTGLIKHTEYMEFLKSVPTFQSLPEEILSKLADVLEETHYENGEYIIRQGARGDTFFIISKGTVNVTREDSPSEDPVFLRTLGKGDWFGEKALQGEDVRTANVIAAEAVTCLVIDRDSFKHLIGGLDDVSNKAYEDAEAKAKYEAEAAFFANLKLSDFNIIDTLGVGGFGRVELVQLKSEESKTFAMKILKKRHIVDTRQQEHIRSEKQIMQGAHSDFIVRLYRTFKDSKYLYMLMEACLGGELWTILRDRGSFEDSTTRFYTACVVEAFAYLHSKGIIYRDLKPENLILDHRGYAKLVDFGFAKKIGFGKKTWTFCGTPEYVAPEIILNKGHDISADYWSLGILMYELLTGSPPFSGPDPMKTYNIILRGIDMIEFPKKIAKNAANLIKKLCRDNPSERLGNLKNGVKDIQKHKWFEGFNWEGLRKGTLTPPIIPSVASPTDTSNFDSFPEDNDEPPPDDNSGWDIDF
Protocol: as §1

PI3-K-α = PI3-K-α (Homo sapiens, UniProt P42336); assay: Kinome profiling PI3-K-α; details: read-out: Inhibitory activity PI3-K-α; for inhibition at 0.1 µM: 100 nM
Protocol: as §1

PHKγ2 = target: T3, PHKγ2 (Homo sapiens, UniProt P15735); assay: Kinome profiling PHKγ2; details: read-out: Inhibitory activity PHKγ2; for inhibition at 0.1 µM: 100 nM
T3 sequence (P15735 1-406): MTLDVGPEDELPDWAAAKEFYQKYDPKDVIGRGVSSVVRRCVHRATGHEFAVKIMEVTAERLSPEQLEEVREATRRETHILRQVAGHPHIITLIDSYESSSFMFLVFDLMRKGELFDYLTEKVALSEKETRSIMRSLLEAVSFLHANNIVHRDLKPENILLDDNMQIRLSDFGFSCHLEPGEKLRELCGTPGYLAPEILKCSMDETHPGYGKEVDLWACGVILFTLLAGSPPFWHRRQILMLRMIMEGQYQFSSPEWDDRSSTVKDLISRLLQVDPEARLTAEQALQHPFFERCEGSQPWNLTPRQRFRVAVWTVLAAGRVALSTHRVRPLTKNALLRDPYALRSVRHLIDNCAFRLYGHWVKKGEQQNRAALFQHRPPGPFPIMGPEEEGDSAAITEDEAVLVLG
Protocol: as §1

IRR = IRR (Homo sapiens, UniProt P14616); assay: Kinome profiling IRR; details: read-out: Inhibitory activity IRR; for inhibition at 0.1 µM: 100 nM
IRR, sequence (P14616 27-1297): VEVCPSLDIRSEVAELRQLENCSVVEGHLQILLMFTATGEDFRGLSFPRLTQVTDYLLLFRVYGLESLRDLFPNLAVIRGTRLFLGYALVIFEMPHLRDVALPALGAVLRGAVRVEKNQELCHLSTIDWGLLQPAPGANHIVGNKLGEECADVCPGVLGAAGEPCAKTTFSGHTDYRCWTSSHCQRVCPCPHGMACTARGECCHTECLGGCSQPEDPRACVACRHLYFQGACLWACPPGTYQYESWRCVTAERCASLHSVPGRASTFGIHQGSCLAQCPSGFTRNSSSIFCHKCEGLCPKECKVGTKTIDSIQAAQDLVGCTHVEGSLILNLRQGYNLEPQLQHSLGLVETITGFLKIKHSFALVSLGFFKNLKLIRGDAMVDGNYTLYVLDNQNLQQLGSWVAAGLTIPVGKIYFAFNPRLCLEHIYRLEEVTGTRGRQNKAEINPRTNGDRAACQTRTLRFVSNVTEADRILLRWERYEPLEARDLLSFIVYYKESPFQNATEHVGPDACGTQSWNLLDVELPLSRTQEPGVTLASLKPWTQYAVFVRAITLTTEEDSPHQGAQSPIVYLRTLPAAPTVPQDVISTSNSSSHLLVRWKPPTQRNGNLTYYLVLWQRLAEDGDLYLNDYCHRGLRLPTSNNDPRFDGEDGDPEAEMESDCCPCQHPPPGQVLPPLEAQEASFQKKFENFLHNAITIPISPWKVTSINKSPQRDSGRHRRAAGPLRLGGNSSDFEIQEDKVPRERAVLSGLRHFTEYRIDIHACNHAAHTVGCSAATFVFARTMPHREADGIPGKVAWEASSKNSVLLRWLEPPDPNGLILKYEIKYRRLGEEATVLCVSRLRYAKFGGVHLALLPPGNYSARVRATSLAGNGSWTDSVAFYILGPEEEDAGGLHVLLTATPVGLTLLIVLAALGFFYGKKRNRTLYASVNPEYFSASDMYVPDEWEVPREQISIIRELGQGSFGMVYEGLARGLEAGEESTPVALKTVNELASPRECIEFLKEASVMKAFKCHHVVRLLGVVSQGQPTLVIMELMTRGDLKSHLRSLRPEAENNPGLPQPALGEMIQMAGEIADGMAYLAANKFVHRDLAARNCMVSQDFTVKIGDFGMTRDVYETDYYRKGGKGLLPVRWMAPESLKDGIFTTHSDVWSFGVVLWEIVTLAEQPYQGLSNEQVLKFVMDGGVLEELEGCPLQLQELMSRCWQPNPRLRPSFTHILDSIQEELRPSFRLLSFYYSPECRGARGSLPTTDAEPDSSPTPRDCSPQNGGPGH
Protocol: as §1

HIPK1 = HIPK1 (Homo sapiens, UniProt Q86Z02); assay: Kinome profiling HIPK1; details: read-out: Inhibitory activity HIPK1; for inhibition at 0.1 µM: 100 nM
Protocol: as §1

PI4-K-β = PI4-K-β (Homo sapiens, UniProt Q9UBF8); assay: Kinome profiling PI4-K-β; details: read-out: Inhibitory activity PI4-K-β; for inhibition at 0.1 µM: 100 nM
PI4-K-β, sequence (Q9UBF8 whole entry): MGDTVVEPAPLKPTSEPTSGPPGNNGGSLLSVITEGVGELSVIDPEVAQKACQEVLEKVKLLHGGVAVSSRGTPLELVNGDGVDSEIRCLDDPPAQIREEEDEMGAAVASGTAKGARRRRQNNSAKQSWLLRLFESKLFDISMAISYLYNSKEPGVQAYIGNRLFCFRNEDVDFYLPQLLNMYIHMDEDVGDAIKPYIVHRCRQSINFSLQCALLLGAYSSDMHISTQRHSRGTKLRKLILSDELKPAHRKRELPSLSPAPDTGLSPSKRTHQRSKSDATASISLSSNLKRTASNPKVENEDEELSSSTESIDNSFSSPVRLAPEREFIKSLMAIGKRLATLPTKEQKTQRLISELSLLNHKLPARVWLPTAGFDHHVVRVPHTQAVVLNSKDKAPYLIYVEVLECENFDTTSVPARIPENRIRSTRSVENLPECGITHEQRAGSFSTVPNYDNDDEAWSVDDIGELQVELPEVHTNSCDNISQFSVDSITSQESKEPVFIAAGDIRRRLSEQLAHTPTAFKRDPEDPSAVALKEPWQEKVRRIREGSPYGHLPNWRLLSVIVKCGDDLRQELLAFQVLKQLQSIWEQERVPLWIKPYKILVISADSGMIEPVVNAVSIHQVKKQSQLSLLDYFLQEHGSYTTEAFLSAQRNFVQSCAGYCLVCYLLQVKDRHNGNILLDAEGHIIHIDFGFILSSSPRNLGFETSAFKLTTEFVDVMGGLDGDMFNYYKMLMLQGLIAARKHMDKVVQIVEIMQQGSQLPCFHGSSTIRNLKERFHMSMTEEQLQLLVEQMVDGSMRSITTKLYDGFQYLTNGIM
Protocol: as §1

PKC-β1 = PKC-β1 (Homo sapiens, UniProt P05771); assay: Kinome profiling PKC-β1; details: read-out: Inhibitory activity PKC-β1; for inhibition at 0.1 µM: 100 nM
PKC-β1, sequence (P05771 whole entry): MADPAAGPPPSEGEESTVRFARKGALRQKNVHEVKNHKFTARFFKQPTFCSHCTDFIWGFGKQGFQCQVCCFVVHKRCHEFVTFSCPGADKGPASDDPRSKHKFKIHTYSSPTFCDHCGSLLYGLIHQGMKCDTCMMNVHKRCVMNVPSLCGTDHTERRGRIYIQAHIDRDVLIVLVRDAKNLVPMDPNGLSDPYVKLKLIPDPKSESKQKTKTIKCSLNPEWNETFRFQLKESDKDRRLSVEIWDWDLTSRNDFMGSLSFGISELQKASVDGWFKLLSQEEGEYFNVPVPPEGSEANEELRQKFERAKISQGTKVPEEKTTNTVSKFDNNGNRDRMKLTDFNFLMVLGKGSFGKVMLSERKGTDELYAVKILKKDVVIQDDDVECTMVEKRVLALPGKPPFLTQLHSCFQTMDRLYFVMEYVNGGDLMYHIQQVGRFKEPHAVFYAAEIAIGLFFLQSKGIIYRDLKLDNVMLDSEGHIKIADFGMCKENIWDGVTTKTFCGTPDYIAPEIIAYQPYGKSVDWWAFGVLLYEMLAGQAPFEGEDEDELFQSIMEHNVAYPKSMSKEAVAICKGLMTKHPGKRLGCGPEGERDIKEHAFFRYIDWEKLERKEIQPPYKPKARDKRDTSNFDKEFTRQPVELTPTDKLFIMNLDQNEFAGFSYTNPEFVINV
Protocol: as §1

CLK2 = CLK2 (Homo sapiens, UniProt P49760); assay: Kinome profiling CLK2; details: read-out: Inhibitory activity CLK2; for inhibition at 0.1 µM: 100 nM
CLK2, sequence (P49760 whole entry): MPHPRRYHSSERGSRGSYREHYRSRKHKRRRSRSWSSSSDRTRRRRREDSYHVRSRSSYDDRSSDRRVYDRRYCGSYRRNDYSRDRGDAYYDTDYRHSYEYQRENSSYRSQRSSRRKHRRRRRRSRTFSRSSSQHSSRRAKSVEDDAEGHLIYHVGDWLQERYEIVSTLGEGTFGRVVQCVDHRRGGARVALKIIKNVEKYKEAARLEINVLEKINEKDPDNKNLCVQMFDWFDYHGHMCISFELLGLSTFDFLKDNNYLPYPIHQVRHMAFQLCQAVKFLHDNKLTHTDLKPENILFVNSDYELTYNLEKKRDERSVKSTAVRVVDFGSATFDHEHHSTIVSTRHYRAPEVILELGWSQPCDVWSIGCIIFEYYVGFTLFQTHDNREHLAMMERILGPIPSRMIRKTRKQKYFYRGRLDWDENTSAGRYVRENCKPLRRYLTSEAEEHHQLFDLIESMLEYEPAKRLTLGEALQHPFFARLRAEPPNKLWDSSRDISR
Protocol: as §1

LYNB, sequence (P07948 1-491 isoform P07948-2): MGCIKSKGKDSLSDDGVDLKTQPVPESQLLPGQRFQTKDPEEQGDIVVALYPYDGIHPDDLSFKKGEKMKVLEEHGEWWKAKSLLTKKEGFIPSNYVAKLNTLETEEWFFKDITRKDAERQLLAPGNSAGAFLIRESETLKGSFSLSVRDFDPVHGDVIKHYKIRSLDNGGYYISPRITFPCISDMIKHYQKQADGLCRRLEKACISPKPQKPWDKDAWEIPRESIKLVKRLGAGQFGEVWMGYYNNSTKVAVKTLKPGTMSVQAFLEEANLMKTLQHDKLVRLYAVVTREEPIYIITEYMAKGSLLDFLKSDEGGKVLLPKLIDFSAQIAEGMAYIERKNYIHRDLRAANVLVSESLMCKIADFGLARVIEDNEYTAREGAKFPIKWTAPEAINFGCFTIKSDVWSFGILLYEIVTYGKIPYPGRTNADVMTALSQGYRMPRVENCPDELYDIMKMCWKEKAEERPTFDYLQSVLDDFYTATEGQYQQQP

Structure (SMILES)	inhibition at 0.1 µM (LYNB) [%]	inhibition at 1 µM (LYNB) [%]	inhibition at 0.1 µM (SRMS) [%]	inhibition at 1 µM (SRMS) [%]	inhibition at 0.1 µM (TNK1) [%]	inhibition at 1 µM (TNK1) [%]	inhibition at 0.1 µM (RSK2) [%]	inhibition at 1 µM (RSK2) [%]	inhibition at 0.1 µM (PRKG1) [%]	inhibition at 1 µM (PRKG1) [%]	inhibition at 0.1 µM (PI3-K-α) [%]	inhibition at 1 µM (PI3-K-α) [%]	inhibition at 0.1 µM (PHKγ2) [%]	inhibition at 1 µM (PHKγ2) [%]	inhibition at 0.1 µM (IRR) [%]	inhibition at 1 µM (IRR) [%]	inhibition at 0.1 µM (HIPK1) [%]	inhibition at 1 µM (HIPK1) [%]	inhibition at 0.1 µM (PI4-K-β) [%]	inhibition at 1 µM (PI4-K-β) [%]	further results
COc1cc(-c2cc(-c3ccc(N4CCNCC4)cc3)cnc2C)cc(OC)c1OC [Compound 10, 1-(4-(6-methyl-5-(3,4,5-trimethoxyphenyl)pyridin-3-yl)phenyl)piperazine]	8	30	0	1	5	2	1	1	3	2	5	7	1	0	2	1	1	1	-10	-15	inhibition at 0.1 µM (PKC-β1): 0%; inhibition at 1 µM (PKC-β1): 1%; inhibition at 0.1 µM (CLK2): 2%; inhibition at 1 µM (CLK2): 2%
COc1cc(-c2cc(-c3ccc(N4CCNCC4)cc3)cnc2N)cc(OC)c1OC [Compound 15, 5-(4-(piperazin-1-yl)phenyl)-3-(3,4,5-trimethoxyphenyl)pyridin-2-amine]	35	82	11	33	2	16	0	4	0	4	4	4	2	3	3	3	1	2	1	1	inhibition at 0.1 µM (PKC-β1): 0%; inhibition at 1 µM (PKC-β1): 0%; inhibition at 0.1 µM (CLK2): 1%; inhibition at 1 µM (CLK2): -1%
